# Data from patent US20160052955A1, “[…] INHIBITORS FOR TREATING CANCERS” (SLOAN-KETTERING INSTITUTE FOR CANCER RESEARCH, priority 2013, published 2016).
# Where two headings read alike, the source gives them in different places.
# Assays:
# Format in all cases: biochemical
# CARM1 (19-608) = biological target: T1, CARM1 (19-608) (Homo sapiens, UniProt Q86X55); assay: Filter-paper methyltransferase assay, CARM1
# T1 construct: CARM1 (19-608)
# T1 sequence (Q86X55 19-608): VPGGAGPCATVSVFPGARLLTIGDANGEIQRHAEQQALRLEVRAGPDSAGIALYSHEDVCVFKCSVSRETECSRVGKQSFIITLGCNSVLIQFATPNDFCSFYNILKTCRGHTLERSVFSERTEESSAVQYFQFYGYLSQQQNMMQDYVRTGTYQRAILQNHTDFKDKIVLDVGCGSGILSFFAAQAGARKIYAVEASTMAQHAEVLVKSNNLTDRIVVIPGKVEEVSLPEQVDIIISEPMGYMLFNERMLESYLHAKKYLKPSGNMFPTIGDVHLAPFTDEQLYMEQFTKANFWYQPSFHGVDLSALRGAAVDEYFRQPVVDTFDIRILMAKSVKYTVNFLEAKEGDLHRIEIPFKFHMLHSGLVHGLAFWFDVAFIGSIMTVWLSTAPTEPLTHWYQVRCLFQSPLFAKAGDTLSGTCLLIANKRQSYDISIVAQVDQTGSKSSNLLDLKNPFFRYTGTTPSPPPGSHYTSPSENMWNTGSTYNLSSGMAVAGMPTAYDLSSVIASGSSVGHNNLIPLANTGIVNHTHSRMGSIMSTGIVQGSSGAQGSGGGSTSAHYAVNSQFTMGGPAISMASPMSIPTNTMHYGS
# G9a (913-1913) = biological target: T2, G9a (913-1913) (Homo sapiens, UniProt Q96KQ7); assay: Filter-paper methyltransferase assay, G9a; settings: substrate H3 (1-21 aa), 20 nM enzyme, 1 h
# T2 construct: G9a (913-1913)
# T2 sequence (Q96KQ7 913-1193 limits assumed): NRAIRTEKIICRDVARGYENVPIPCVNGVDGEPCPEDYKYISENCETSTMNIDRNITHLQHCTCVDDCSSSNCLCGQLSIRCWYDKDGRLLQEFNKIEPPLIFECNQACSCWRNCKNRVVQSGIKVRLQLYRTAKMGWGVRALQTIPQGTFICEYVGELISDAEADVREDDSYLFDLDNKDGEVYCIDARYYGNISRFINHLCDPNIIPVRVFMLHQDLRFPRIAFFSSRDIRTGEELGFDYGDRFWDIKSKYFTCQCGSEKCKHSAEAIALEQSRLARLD
# GLP1 (951-1235) = biological target: T3, GLP1 (951-1235) (Homo sapiens, UniProt Q9H9B1); assay: Filter-paper methyltransferase assay, GLP1; settings: substrate H3 (1-21 aa), 10 nM enzyme, 1 h
# T3 construct: GLP1 (951-1235)
# T3 sequence (Q9H9B1 982-1266): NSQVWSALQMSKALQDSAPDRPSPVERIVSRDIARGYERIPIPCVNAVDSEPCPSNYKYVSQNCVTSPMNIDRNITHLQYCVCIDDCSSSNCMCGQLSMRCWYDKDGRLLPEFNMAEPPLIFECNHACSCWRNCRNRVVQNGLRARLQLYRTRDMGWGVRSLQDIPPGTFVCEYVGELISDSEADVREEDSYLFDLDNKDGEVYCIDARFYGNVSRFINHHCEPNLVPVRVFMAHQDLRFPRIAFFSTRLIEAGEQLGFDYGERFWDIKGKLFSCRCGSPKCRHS
# Experimental: (§1) Methylation Reaction. The 20 μL methylation reaction was carried out at ambient temperature using two mixtures: A. 10 μl of enzyme mixture in the assay buffer containing 50 mM Hepes (pH=8.0), 0.005% Tween-20, 5 μg/ml BSA and 1 mM TCEP; B. 10 μl of a mixture of […], 0.15 μCi [^3H-Me]-SAM cofactor and 3 μM of the corresponding peptide substrate in the same assay buffer. After A and B were mixed for a designated time period, the reaction mixture was examined with our filter-paper assay.
# (§2) Filter-paper Assay. This assay relies on Whatman P-81 filter paper, which binds peptides but not SAM. Protein Methyl Transferases (PMTs) transfer ^3H-Me of [^3H-Me]-SAM to peptide substrates and the resultant ^3H-methylated, filter-paper-bound peptide is quantified with a scintillation counter. Briefly, 6 μl of the methylation reaction was spotted onto Whatman P-81 phosphocellulose filter paper (1.2×1.2 cm^2) to immobilize the ^3H-labeled peptide. After drying in air for 20 min, the filter paper was immersed into 20 mL of 50 mM Na2CO3/NaHCO3 buffer (pH=9.2), and washed 5 times for 10 min each time. The washed filter paper was then transferred to a 20 ml scintillation vial containing 1 mL of distilled water and 10 mL of Ultima Gold scintillation cocktail or 7 mL scintillation vial containing 0.5 mL od distilled water and 5 mL of scintillation cocktail (PerkinElmer). The radioactivity was quantified by a Beckman LS6000IC liquid scintillation counter.
# (§3) Dose-response Curves and IC50. Twice the PMT concentration was incubated for 10 min with varied concentration of inhibitors (0.1-400 μM stocks), into which 10 μl of the PMT peptide substrate and radioactive cofactor (3 μM of the corresponding peptide and 1.5 μM, 0.15 μCi [^3H-Me]-SAM) were added. After incubating the reaction mixture for the respective reaction time, the conversion was quantified with the filter paper assay as described above. The inhibition was expressed as the percentage between the high control (no inhibition) and the low control (no enzyme) as follows: Percentage Inhibition=[(high control−reading)/(high control−low control)]×100%. Each experiment was performed in triplicate. The IC50 values were obtained by fitting inhibition percentage versus inhibitor concentration using GraphPad Prism5 software.
# SMYD2 Full-length = biological target: T4, SMYD2 Full-length (Homo sapiens, UniProt Q9NRG4); assay: Filter-paper methyltransferase assay, SMYD2; settings: substrate p53 (360-393 aa), 50 nM enzyme, 10 h; read-out: IC50 SMYD2-FL
# T4 construct: SMYD2 Full-length
# Experimental: as §1, §2, §3
# PRMT3 (211-531) = biological target: T5, PRMT3 (211-531) (Homo sapiens, UniProt O60678); assay: Filter-paper methyltransferase assay, PRMT3; settings: substrate RGG, 100 nM enzyme, 3 h; read-out: IC50 PRMT3
# T5 construct: PRMT3 (211-531)
# SMYD3 = biological target: T6, SMYD3 (Homo sapiens, UniProt Q9H7B4); assay: Filter-paper methyltransferase assay, SMYD3; settings: substrate MAP3K2 (1-350 aa), 125 nM enzyme, 2 h
# T6 sequence (Q9H7B4 1-428): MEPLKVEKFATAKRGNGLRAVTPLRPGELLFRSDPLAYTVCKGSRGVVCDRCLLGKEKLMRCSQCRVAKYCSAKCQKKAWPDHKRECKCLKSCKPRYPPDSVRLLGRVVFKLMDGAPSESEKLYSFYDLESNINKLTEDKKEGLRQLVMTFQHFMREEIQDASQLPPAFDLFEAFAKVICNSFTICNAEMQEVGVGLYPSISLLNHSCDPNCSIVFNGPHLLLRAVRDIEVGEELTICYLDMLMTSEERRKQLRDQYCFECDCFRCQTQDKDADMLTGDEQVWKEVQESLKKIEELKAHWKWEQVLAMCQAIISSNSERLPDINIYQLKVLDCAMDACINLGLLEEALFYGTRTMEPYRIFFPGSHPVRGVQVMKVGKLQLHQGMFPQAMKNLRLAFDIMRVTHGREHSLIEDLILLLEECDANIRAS
# Experimental: as §1
# Filter-paper Assay. This assay relies on Whatman P-81 filter paper, which binds peptides but not SAM. Protein Methyl Transferases (PMTs) transfer ^3H-Me of [^3H-Me]-SAM to peptide substrates and the resultant ^3H-methylated, filter-paper-bound peptide is quantified with a scintillation counter. […] The radioactivity was quantified by a Beckman LS6000IC liquid scintillation counter.
# Dose-response Curves and IC50. […] After incubating the reaction mixture for the respective reaction time, the conversion was quantified with the filter paper assay as described above. The inhibition was expressed as the percentage between the high control (no inhibition) and the low control (no enzyme) as follows: Percentage Inhibition=[(high control−reading)/(high control−low control)]×100%. […]
# SUV39H2 (112-410) = biological target: T7, SUV39H2 (112-410) (Homo sapiens, UniProt Q9H5I1); assay: Filter-paper methyltransferase assay, SUV39H2; settings: substrate H3 (1-21 aa), 5 nM enzyme, 4 h; read-out: IC50 SUV39H2
# T7 construct: SUV39H2 (112-410)
# DOT1L = DOT1L (Homo sapiens, UniProt Q8TEK3); assay: Filter-paper methyltransferase assay, DOT1L; settings: for IC50: substrate nucleosomes, 50 nM enzyme, 6 h
# PRMT1 (10-352) = biological target: T8, PRMT1 (10-352) (Homo sapiens, UniProt Q99873); assay: Filter-paper methyltransferase assay, PRMT1; settings: 100 nm enzyme, substrate RGG, 1.5 h
# T8 construct: PRMT1 (10-352)
# SETD2 (1347-1711) = biological target: T9, SETD2 (1347-1711) (Homo sapiens, UniProt Q9BYW2); assay: Filter-paper methyltransferase assay, SETD2; settings: substrate H3 (20-50 aa), 250 nM enzyme, 4 h
# T9 construct: SETD2 (1347-1711)
# T9 sequence (Q9BYW2 1347-1711): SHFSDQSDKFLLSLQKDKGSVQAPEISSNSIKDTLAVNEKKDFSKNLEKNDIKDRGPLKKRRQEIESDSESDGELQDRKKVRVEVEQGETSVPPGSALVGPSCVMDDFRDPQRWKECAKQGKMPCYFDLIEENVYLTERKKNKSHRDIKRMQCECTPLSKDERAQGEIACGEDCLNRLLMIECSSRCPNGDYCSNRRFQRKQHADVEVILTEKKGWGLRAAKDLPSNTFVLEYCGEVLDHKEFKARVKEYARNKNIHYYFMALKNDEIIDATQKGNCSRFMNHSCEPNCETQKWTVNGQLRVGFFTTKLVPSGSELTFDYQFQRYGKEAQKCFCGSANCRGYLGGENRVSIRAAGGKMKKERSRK
# SET7/9 Full-length = biological target: T10, SET7/9 Full-length (Homo sapiens, UniProt Q8WTS6); assay: Filter-paper methyltransferase assay, SET7/9; settings: substrate H3 (1-21 aa), 150 nM enzyme, 3 h
# T10 construct: SET7/9 Full-length
# T10 sequence (Q8WTS6 1-366): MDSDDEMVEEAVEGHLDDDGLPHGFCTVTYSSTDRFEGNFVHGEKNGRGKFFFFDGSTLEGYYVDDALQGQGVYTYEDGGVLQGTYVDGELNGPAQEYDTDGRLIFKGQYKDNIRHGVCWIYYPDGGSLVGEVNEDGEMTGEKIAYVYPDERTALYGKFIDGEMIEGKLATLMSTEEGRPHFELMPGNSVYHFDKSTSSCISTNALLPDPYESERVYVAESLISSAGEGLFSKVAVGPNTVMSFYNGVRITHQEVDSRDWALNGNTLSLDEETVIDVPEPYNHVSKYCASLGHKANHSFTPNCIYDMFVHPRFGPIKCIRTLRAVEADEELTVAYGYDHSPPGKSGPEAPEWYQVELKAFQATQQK
# SET8 (191-352) = biological target: T11, SET8 (191-352) (Homo sapiens, UniProt Q9NQR1); assay: Filter-paper methyltransferase assay, SET8; settings: substrate H4 (10-30 aa), 1000 nM enzyme, 8 h
# T11 construct: SET8 (191-352)
# T11 sequence (Q9NQR1 191-352 isoform Q9NQR1-2): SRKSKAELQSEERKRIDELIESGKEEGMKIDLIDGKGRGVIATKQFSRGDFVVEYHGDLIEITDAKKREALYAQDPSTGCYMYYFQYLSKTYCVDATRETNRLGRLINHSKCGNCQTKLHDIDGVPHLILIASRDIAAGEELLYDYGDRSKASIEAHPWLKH
# [1] = substrate H3 (1-40 aa), 300 nM enzyme, 7 h, read-out: IC50 CARM1
# T7 sequence (Q9H5I1 112-410): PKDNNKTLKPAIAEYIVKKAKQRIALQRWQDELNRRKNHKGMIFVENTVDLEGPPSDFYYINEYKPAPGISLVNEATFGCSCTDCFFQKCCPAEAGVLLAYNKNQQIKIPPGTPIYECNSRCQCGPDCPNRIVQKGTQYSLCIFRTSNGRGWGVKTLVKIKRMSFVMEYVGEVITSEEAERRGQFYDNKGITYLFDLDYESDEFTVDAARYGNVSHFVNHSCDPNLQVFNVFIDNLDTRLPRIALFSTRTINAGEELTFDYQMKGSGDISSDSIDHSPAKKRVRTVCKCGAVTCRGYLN
# Sequence of DOT1L (Q8TEK3 whole entry): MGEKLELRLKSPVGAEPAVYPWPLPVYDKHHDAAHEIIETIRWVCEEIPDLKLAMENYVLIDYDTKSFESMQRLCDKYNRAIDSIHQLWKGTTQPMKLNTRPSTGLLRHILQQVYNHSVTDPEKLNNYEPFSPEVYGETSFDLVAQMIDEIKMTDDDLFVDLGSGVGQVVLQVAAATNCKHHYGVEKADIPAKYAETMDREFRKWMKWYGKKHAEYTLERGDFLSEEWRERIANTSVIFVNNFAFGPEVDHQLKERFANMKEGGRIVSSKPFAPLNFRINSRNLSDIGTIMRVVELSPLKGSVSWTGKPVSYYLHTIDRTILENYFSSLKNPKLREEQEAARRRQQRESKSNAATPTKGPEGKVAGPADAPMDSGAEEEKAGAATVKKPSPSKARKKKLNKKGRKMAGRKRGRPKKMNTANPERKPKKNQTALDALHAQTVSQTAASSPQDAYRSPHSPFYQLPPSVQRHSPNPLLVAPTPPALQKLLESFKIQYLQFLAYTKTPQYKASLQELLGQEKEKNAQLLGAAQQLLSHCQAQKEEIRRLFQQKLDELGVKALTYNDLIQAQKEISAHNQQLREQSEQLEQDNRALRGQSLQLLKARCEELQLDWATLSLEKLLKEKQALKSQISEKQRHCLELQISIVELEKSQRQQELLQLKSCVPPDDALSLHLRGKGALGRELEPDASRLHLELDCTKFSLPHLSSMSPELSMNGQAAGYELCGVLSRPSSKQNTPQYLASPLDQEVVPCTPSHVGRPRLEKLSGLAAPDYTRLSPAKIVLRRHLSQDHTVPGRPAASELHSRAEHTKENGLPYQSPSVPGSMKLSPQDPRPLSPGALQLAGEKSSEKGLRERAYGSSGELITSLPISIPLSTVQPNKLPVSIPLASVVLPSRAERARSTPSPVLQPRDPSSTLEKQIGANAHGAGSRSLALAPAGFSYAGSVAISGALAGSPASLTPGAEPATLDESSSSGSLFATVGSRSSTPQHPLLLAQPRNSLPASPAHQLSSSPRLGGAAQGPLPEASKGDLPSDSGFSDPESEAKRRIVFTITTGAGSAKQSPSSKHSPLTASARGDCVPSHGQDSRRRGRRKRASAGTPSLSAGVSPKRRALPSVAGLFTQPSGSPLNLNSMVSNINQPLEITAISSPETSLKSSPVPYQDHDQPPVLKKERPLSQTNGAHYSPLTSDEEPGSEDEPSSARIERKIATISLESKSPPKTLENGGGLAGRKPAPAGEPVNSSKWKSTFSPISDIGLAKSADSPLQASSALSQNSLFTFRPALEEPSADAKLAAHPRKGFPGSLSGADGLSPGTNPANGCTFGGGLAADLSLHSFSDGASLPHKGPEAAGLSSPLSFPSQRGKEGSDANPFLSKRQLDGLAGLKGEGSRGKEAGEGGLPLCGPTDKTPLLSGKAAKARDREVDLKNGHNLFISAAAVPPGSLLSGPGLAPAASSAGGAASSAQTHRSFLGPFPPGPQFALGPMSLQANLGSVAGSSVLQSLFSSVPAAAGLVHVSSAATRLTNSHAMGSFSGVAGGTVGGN
# T4 sequence (Q9NRG4 whole entry, the tested form may be a part): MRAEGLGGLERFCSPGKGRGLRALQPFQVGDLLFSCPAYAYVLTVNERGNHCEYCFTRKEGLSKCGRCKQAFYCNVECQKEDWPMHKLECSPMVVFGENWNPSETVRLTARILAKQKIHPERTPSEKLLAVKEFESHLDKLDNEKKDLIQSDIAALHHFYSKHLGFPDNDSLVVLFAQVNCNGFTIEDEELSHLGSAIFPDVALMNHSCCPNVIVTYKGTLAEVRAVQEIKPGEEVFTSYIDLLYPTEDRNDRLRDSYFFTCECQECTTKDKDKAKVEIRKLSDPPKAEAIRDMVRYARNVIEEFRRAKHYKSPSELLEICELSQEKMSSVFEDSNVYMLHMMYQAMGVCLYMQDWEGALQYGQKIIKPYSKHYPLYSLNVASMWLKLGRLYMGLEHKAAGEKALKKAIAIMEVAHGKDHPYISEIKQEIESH
# T5 sequence (O60678 211-531): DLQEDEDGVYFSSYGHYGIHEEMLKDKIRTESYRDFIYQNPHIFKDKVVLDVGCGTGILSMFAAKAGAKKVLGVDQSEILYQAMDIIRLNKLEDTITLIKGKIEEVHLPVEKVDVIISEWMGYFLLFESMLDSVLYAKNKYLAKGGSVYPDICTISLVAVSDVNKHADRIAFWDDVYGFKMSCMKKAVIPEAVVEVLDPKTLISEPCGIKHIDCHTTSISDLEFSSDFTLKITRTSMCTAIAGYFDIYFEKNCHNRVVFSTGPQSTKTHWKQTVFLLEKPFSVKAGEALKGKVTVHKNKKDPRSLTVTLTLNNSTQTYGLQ
# T8 sequence (Q99873 10-352 isoform Q99873-3): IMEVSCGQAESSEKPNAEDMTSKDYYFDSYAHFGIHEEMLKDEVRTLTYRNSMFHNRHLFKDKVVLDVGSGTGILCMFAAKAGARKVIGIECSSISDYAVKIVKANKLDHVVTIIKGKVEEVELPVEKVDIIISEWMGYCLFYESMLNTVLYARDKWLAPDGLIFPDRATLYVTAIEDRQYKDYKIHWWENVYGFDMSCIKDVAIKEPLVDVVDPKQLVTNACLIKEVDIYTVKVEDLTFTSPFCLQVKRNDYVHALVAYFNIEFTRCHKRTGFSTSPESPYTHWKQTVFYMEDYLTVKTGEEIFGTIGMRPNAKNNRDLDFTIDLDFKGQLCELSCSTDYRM
inhibitory activity to CARM1 (in words) (CARM1 (19-608)),IC50 (CARM1 (19-608); [1]) [µM],IC50 (G9a (913-1913)) [µM],IC50 (GLP1 (951-1235)) [µM],IC50 (SMYD2 Full-length) [µM],IC50 (PRMT3 (211-531)) [µM],IC50 (SMYD3) [µM],IC50 (SUV39H2 (112-410)) [µM],inhibitory activity to DOT1L (in words) (DOT1L),IC50 (DOT1L) [µM],IC50 (PRMT1 (10-352)) [µM],IC50 (SETD2 (1347-1711)) [µM],Structure (SMILES),IC50 (SET7/9 Full-length) [µM],IC50 (SET8 (191-352)) [µM],IC50 (CARM1 (19-608)) [µM]
remarkable inhibitory activity,0.73,> 100,> 100,> 100,> 50,> 100,> 100,remarkable inhibitory activity,0.07,> 100,–,CC(C)(C)c1ccc(NC(=O)NCCC[C@H](CN)C[C@H]2O[C@@H](n3cnc4c(N)ncnc43)[C@@H](O)C2O)cc1 (stereo partly drawn) [Example 28],–,–,–
remarkable inhibitory activity,< 0.2,> 100,> 100,> 100,> 50,> 100,~10,remarkable inhibitory activity,0.17,> 100,> 100,CC(C)(C)c1ccc(NC(=O)NCCC[C@H](CNCc2ccccc2)C[C@H]2O[C@@H](n3cnc4c(N)ncnc43)[C@@H](O)C2O)cc1 (stereo partly drawn) [Example 29],> 100,> 100,–

Structure (SMILES),inhibitory activity to CARM1 (in words) (CARM1 (19-608)),IC50 (CARM1 (19-608); [1]) [µM],IC50 (G9a (913-1913)) [µM],IC50 (GLP1 (951-1235)) [µM],IC50 (SMYD2 Full-length) [µM],IC50 (PRMT3 (211-531)) [µM],IC50 (SMYD3) [µM],IC50 (SUV39H2 (112-410)) [µM],inhibitory activity to DOT1L (in words) (DOT1L),IC50 (DOT1L) [µM],IC50 (PRMT1 (10-352)) [µM],IC50 (SETD2 (1347-1711)) [µM],IC50 (SET7/9 Full-length) [µM],IC50 (SET8 (191-352)) [µM],IC50 (CARM1 (19-608)) [µM]
"Nc1ncnc2c1ncn2[C@@H]1O[C@H](C[C@@H](N)CC[C@H](N)C(=O)O)[C@@H](O)[C@H]1O [Sinefungin, sinefungin, reference compound]",–,–,–,32,0.22,28.2,–,4.58,–,53.4,–,–,1.14,> 100,0.44
